In series [1] the test system is GABAA alpha-1 site. To be noted: 10^-4M, bovine hippocampus.
The conditions of series [2]: rat, intravenously via jugular vein cannula, in DMSO, blood.
The nature of series [3]: in vivo. Particulars: rat. The source says: Time plasma concentration curve was processed using a two compartment PK model supported by WinNonlin.
For series [4], the system named is GABAA alpha 2 site. Particulars: 10^-4M, bovine hippocampus.
For series [5], the system named is GABAA Cl channel. It counts as binding, bovine. Particulars: read-out: IC50 of binding to GABA Cl channel.
The subject of series [6] is T1, GABAA Cl channel.
T1 construct: other: determined graphically, increasing concentr; other: 10^-4M, bovine hippocampus
It counts as binding, bovine. Particulars: for Kd: read-out: binding constant (KD), inhibition of TBOB binding to GABAA receptor.

A short description of series [7]: Dose escalation in rats: mortality and anesthetic activity. To be noted: rat, in vivo. How it is done: (§1) Drugs solubilized in DMSO were administered to rats (5 rats per group). Anesthetic activity in vivo was determined as time to recovery of righting reflex. […] In order to adjust for the differences in molecular weight between the two compounds, umol/kg dose was used.

The subject of series [8] is rats. The description is as above. Particulars: rats; for LD10: in DMSO, calculated from mortality curves. How it is done:
as §1

A short description of series [9]: in vivo. To be noted: rat, plasma, intravenous, 5 mg/kg.
Series [10] concerns rats. The series is described as follows: Anesthetic activity in vivo, time to recovery of righting reflex. More on the design: species or system rat. Particulars: for duration of anesthesia (time to recovery of righting reflex): tail vein injection in DMSO, 28 μmol/kg (5 mg/kg for 2,6-diisopropyl phenol); for toxicity compared with 2,6-diisopropyl phenol: equimolar dose. How it is done:
Drugs solubilized in DMSO were administered to rats by tail vein injection (N=5 rats per group). […] GABAA binding activity in vitro was performed as described in Example 27.

Series [11] relates to GABAA agonist site. To be noted: 10^-4M, bovine hippocampus.
Series [12] deals with GABAA alpha-6 site. To be noted: 10^-4M, bovine hippocampus.
For series [13] the following is noted: dissolved in DMSO.
A short description of series [14]: Total Antioxidant Status Assay (CalBiochem), inhibition of ABTS oxidation. Particulars: read-out: Antioxidant activity (IC50, 50% suppression of ABTS+ absorbance at 600 nm). It counts as biochemical. The text has this: The assay used relies on the ability of antioxidants in the sample to inhibit the oxidation of ABTS (2,2'-Azino-di-[3-ethylbenzthiazoline sulphonate]) to ABTS+ by metmyoglobin (a peroxidase). The amount of ABTS+ produced was monitored at 600 nm. Under the reaction conditions used, the antioxidants in the sample suppress the absorbance at 600 nm to a degree which is proportional to their concentration and antioxidant activity.

[15] abbreviates: 5 mg/kg intravenously in DMSO, plasma.
The mark [16] stands for this setting: determined graphically, increasing concentrations.

The values that follow come from patent US8026275B2 (priority 2005, dated 2011).

Where two headings read alike, the source gives them in different places. A value given as a limit tells only on which side of the number the result lay.

For `CC(C)c1cccc(C(C)C)c1O` [2,6-diisopropyl phenol], the “inhibition of the alpha 1 site” value in series [1] is listed as “No significant inhibition”. Also, in series [2], the AUC came to 0.4 µg·h/mL, the CL was determined as 11.7 L/h/kg, the Cmax was determined as 0.3 µg/mL and the “Vc (volume of the central compartment)” value came to 15.0 L/kg. Moreover, the “Vt (volume of the tissue compartment)” value in series [2] is on record as 58.0 L/kg. Moreover, in series [3] (setting [15]), the V1 was 15 L/kg and the V2 is 58 L/kg. Besides, in series [3] (in vivo, iv, 5 mg/kg), the area under the curve (AUC) stood at 400 ng·h/mL, the Cmax was 300 ng/mL, the distribution volume (Vd) was 73 L/kg and the clearance is 200 mL/min/kg. The “inhibition of the alpha 2 site” value in series [4] is listed as “No significant inhibition”. In [5], the IC50 came out at 96 µM. Besides, in series [6], the “inhibition of TBOB binding to the chloride channel” value was “inhibited the binding of TBOB” and the dissociation constant (Kd) is 5740 nM. The 50% lethal dose (LD50) in series [7] turned out to be 45.3 µmol/kg. Also, in series [8], the “time asleep at LD10” value worked out at 0.35 h and the LD10 is 28 µmol/kg. This molecule came in with a concentration at 20 min in series [9] of 750 nM. Moreover, the “duration of anesthesia (time to recovery of righting reflex)” value (“duration of anesthesia” for short) in series [10] stood at 20 min. For the same molecule, in [11], the “inhibition of the agonist site” value is recorded as “No significant inhibition”. Also, the “inhibition of the alpha 6 site” value in series [12] is listed as “No significant inhibition”. Also, in [13], the “time the rat was put to sleep” value is given as 20 min.

For `CC(C)c1cc(C(=O)c2ccc(F)cc2)cc(C(C)C)c1O` [Compound 1, (4-fluorophenyl)-(4-hydroxy-3,5-diisopropylphenyl)methanone], in series [14], the IC50 was more than 1 mM.

`CC(C)c1cc(C(=O)c2ccc(C(F)(F)F)cc2)cc(C(C)C)c1O` [Compound 2]: in series [2], the AUC amounted to 127 µg·h/mL, the CL stood at 0.08 L/h/kg, the peak concentration (Cmax) came to 283 µg/mL and the “Vc (volume of the central compartment)” value was determined as 0.04 L/kg. Besides, in series [2], the “Vss (volume distribution at steady state)” value came out at 5.3 L/kg and the “Vt (volume of the tissue compartment)” value came to 5.2 L/kg. In [6] (setting [16]), the dissociation constant Kd was 420 nM. The molecule also showed a median lethal dose (LD50) in series [7] of 62.1 µmol/kg. Also, in series [8], the “time asleep at LD10” value was found to be 1.73 h and the LD10 was 29 µmol/kg. The “anesthetic activity compared with 2,6-diisopropyl phenol” value in series [8] (dose escalation) was “better anesthetic activity than 2,6-diisopropyl phenol at all dose levels”. Besides, in [10], the “toxicity compared with 2,6-diisopropyl phenol” value is reported as “did not have toxicity above that of 2,6-diisopropyl phenol” and the “duration of anesthesia” value is 75 to 92 min. Besides, in [14], the IC50 is more than 1 mM.

Consider `CC(C)c1cc(C(=O)c2ccc([N+](=O)[O-])cc2)cc(C(C)C)c1O` [Compound 3, (4-hydroxy-3,5-diisopropylphenyl)-(4-nitrophenyl)methanone], for which, in [14], the IC50 was more than 1 mM.

On to `CC(C)c1cc(C(=O)c2ccc(C(F)(F)F)c(F)c2)cc(C(C)C)c1O` [Compound 4, (3-fluoro-4-(trifluoromethyl)phenyl)-(4-hydroxy-3,5-diisopropylphenyl)methanone], for which, in [14], the half-inhibitory concentration (IC50) is more than 1 mM.

Turning to `CC(C)c1cc(C(=O)c2cccc(C(F)(F)F)c2)cc(C(C)C)c1O` [Compound 5, (3-(trifluoromethyl)phenyl)-(4-hydroxy-3,5-diisopropylphenyl)methanone], the IC50 in series [14] was more than 1 mM.

With `CC(C)c1cc(C(=O)c2cc(F)cc(C(F)(F)F)c2)cc(C(C)C)c1O` [Compound 6, (3-fluoro-5-(trifluoromethyl)phenyl)-(4-hydroxy-3,5-diisopropylphenyl)methanone], the IC50 in series [14] is more than 1 mM.

Take `CC(C)c1cc(C(=O)c2ccc(C(C)(C)C)cc2)cc(C(C)C)c1O` [Compound 9, (4-tert-butylphenyl)-(4-hydroxy-3,5-diisopropylphenyl)methanone]: in series [14], the half-inhibitory concentration (IC50) is more than 1 mM.

Consider `CC(C)c1cc(C(=O)c2ccc(I)cc2)cc(C(C)C)c1O` [Compound 11, (4-hydroxy-3,5-diisopropylphenyl)-(4-iodophenyl)methanone], for which the Kd in [6] (setting [16]) turned out to be 360 nM. In addition, in series [10], the “toxicity compared with 2,6-diisopropyl phenol” value is “did not have toxicity above that of 2,6-diisopropyl phenol” and the “duration of anesthesia” value was found to be 86 min. Moreover, the half-inhibitory concentration (IC50) in series [14] is more than 1 mM.

On to `CC(C)c1cc(C(=O)c2ccc(C#N)cc2)cc(C(C)C)c1O` [Compound 13, (4-cyanophenyl)-(4-hydroxy-3,5-diisopropylphenyl)methanone], for which, in series [14], the half-maximal inhibitory concentration (IC50) is more than 1 mM.

On to `CC(C)c1cc(C(=O)c2ccc(C(F)(F)F)nc2)cc(C(C)C)c1O` [Compound 14, (6-(trifluoromethyl)pyridin-3-yl)-(4-hydroxy-3,5-diisopropylphenyl)methanone], for which the IC50 in series [14] was more than 1 mM.

As to `CC(C)c1cc(C(O)c2ccc(C(F)(F)F)cc2)cc(C(C)C)c1O` (stereo not drawn) [Compound 20, 4-((4-(trifluoromethyl)phenyl)(hydroxy)methyl)-2,6-diisopropylphenol], the 50% inhibitory concentration (IC50) in [14] turned out to be 0.028 mM.
